According to ChEMBL document CHEMBL4823310, “Small Molecule Inhibitors of KRAS G12C Mutant” (ACS Med Chem Lett, 2021):

Columns and labels:
[1] = Inhibition of ERK phosphorylation in human NCI-H358 cells incubated for 2 hrs by cellular assay; format: cell-based; conditions: NCI-H358, 2 h
GTPase KRas = GTPase KRas (Homo sapiens, UniProt P01116, C118S/C51S/C80L/G12C); assay: Inhibition of biotinylated KRAS G12C/C51S/C80L/C118S mutant (unknown origin) pretreated for 60 mins followed by recombinant SOS addition by SOS-catalyzed nucleotide exchange-based TR-FRET analysis
Chain of GTPase KRas (P01116 whole entry G12C/C51S/C80L/C118S): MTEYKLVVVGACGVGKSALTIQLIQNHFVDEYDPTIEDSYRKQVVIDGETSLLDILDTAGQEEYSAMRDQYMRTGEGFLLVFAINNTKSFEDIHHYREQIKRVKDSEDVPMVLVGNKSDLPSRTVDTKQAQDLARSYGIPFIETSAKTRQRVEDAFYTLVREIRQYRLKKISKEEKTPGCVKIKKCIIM

SMILES	IC50 [1] [nM]	IC50 (GTPase KRas) [nM]
C=CC(=O)N1C[C@H](C)N(c2nc(=O)n3c4nc(c(Cl)cc24)-c2c(ccc(F)c2F)OCCCc2ncnc(C(C)C)c2-3)C[C@H]1C	3.6	
C=CC(=O)N1C[C@H](C)N(c2nc(=O)n3c4nc(c(F)cc24)-c2c(Cl)cccc2OCCCc2ccnc(C(C)C)c2-3)C[C@H]1C	3.6	
[2H]C1([2H])Oc2ccc(F)c(F)c2-c2nc3c(cc2Cl)c(N2C[C@@H](C)N(C(=O)C=C)C[C@@H]2C)nc(=O)n3-c2c(ccnc2C(C)C)OC1([2H])[2H]	6.1	0.51
C=CC(=O)N1CCN(c2nc(=O)n3c4nc(c(Cl)cc24)-c2c(F)cccc2OCC(F)(F)CCc2ccnc(C(C)C)c2-3)[C@@H](C)C1	3	0.56
C=CC(=O)N1C[C@H](C)N(c2nc(=O)n3c4nc(c(F)cc24)-c2c(ccc(F)c2F)OCCC(C)c2ccnc(C(C)C)c2-3)C[C@H]1C (stereo partly drawn)	6.8	
C=CC(=O)N1C[C@H](C)N(c2nc(=O)n3c4nc(c(F)cc24)-c2c(F)cccc2OCCCc2ccnc(C(C)C)c2-3)C[C@H]1C	8.8	
C=CC(=O)N1CCN(c2nc(=O)n3c4nc(c(F)cc24)-c2c(F)cccc2OCCCc2ccnc(C(C)C)c2-3)[C@@H](C)C1	6.7	4.3
C=CC(=O)N1CCN(c2nc(=O)n3c4nc(c(F)cc24)-c2c(F)cccc2OCCCCc2ccnc(C(C)C)c2-3)[C@@H](C)C1	1.5	2.4
C=CC(=O)N1C[C@H](C)N(c2nc(=O)n3c4nc(c(F)cc24)-c2c(F)cccc2OCCCCc2ccnc(C(C)C)c2-3)C[C@H]1C	2.2	
C=CC(=O)N1C[C@H](C)N(c2nc(=O)n3c4nc(c(Cl)cc24)-c2c(F)ccc(F)c2OCCOc2ccnc(C(C)C)c2-3)C[C@H]1C	4.4	1.1
C=CC(=O)N1C[C@H](C)N(c2nc(=O)n3c4nc(c(Cl)cc24)-c2c(F)cccc2OCCc2ccnc(C(C)C)c2-3)C[C@H]1C	5.1	2.6
C=CC(=O)N1C[C@H](C)N(c2nc(=O)n3c4nc(c(Cl)cc24)-c2c(F)cccc2OCC(F)(F)COc2ccnc(C(C)C)c2-3)C[C@H]1C	6.1	
